How the values were obtained:
Experiment in all cases: Transient transfection (transactivation) assay in CV-1 cells, GAL4-PPAR chimera, luciferase reporter
Assay type in all cases: cell-based
[1] = molecular target: T1, PPAR gamma (Homo sapiens, UniProt P37231)
T1 construct: expressed in transfected cells; host or cells: CV-1 cells
T1 sequence (P37231 238-503 limits assumed): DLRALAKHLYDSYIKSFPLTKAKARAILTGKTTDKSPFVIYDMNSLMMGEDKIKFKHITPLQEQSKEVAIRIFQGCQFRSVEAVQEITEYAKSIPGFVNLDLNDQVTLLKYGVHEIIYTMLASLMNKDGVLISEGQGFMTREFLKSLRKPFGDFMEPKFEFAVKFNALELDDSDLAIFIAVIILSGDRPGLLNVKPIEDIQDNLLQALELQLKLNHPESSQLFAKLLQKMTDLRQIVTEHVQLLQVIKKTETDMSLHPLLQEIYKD

[2] = molecular target: T2, PPAR delta (Homo sapiens, UniProt Q03181)
T2 construct: expressed in transfected cells; host or cells: CV-1 cells
T2 sequence (Q03181 211-439 limits assumed): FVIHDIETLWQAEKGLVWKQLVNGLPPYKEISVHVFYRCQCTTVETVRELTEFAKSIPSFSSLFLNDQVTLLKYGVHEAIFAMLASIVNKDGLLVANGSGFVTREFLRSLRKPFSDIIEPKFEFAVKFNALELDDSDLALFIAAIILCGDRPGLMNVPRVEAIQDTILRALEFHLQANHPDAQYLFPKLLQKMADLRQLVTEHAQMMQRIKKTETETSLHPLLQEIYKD

[3] = molecular target: T3, PPAR alpha (Homo sapiens, UniProt Q07869)
T3 construct: expressed in transfected cells; host or cells: CV-1 cells
T3 sequence (Q07869 239-466 limits assumed): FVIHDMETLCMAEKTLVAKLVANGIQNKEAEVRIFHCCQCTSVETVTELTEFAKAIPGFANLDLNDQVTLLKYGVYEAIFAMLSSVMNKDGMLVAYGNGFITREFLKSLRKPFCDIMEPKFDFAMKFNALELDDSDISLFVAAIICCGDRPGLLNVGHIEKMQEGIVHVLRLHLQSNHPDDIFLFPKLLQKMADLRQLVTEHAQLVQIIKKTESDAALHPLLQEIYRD
Text: Compounds may be screened for functional potency in transient transfection assays in CV-1 cells or other cell types for their ability to activate the PPAR subtypes (transactivation assay). A previously established chimeric receptor system was utilized to allow comparison of the relative transcriptional activity of the receptor subtypes on the same synthetic response element and to prevent endogenous receptor activation from complicating the interpretation of results. See, for example; Lehmann, J. M.; Moore, L. B.; Smith-Oliver, T. A; Wilkinson, W. O.; Willson, T. M.; Kliewer, S. A., An antidiabetic thiazolidinedione is a high affinity ligand for peroxisome proliferatur-activated receptor γ (PPARγ), J. Biol. Chem., 1995, 270, 12953-6. The ligand binding domains for murine and human PPAR-alpha, PPAR-gamma, and PPAR-delta are each fused to the yeast transcription factor GAL4 DNA binding domain. CV-1 cells were transiently transfected with expression vectors for the respective PPAR chimera along with a reporter construct containing four or five copies of the GAL4 DNA binding site driving expression of luciferase. After 8-16 h, the cells are replated into multi-well assay plates and the media is exchanged to phenol-red free DME medium supplemented with 5% delipidated calf serum. 4 hours after replating, cells were treated with either compounds or 1% DMSO for 20-24 hours. Luciferase activity was then assayed with Britelite (Perkin Elmer) following the manufacturer's protocol and measured with either the Perkin Elmer Viewlux or Molecular Devices Acquest Xsee, for example, Kliewer, S. A., et. al. Cell 1995, 83, 813-819). Rosiglitazone is used as a positive control in the hPPAR-γ assay. Wy-14643 and GW7647 is used as a positive control in the hPPAR-α assay. GW501516 is used as the positive control in the hPPAR-δ assay.
Compounds of Examples 1-233 were assayed to measure their biological activity with respect to their EC50 values and efficacy for modulating PPAR-alpha, PPAR-gamma, and PPAR-delta as set forth in Table 3.

EC50 [1] [µM] | PPAR delta EC50 [2] | EC50 [3] [µM] | EC50 [2] [µM] | PPAR gamma EC50 [1] | Structure (SMILES)
< 5 |  | < 5 | < 5 |  | Cc1ccc(S(=O)(=O)N2CCN(c3ncc(C(F)(F)F)cc3Cl)CC2)cc1CC(=O)O [Example 54, {5-[4-(3-Chloro-5-trifluoromethyl-pyridin-2-yl)-piperazine-1-sulfonyl]-2-methyl-phenyl}-acetic acid]
< 5 |  | < 5 | < 5 |  | Cc1ccc(S(=O)(=O)N2CCN(c3ncc(C(F)(F)F)cn3)CC2)cc1CC(=O)O [Example 59, {2-Methyl-5-[4-(5-trifluoromethyl-pyrimidin-2-yl)-piperazine-1-sulfonyl]-phenyl}-acetic acid]
> 100 |  | 5 to 100 | < 5 |  | Cc1ccc(S(=O)(=O)N2CC=C(c3ccc(C(F)(F)F)cn3)CC2)cc1CC(=O)O [Example 66, [2-Methyl-5-(5-trifluoromethyl-3′,6′-dihydro-2^1H-[2,4′]bipyridinyl-1′-sulfonyl)-phenyl]-acetic acid]
< 5 |  | < 5 | < 5 |  | Cc1ccc(S(=O)(=O)N2CCN(c3ccc(C(F)(F)F)cn3)[C@@H](C)C2)cc1CC(=O)O [Example 70, {2-Methyl-5-[(S)-3-methyl-4-(5-trifluoromethyl-pyridin-2-yl)-piperazine-1-sulfonyl]-phenyl}-acetic acid]
> 100 |  | > 100 | 5 to 100 |  | Cc1ccc(S(=O)(=O)N2C[C@@H](C)N(c3ccc(C(F)(F)F)cn3)[C@@H](C)C2)cc1CC(=O)O [Example 72, {2-Methyl-5-[3,5-dimethyl-4-(5-trifluoromethyl-pyridin-2-yl)-piperazine-1-sulfonyl]-phenyl}-acetic acid]
> 100 |  | > 100 | 5 to 100 |  | Cc1ccc(S(=O)(=O)N2CCN(c3ccc4occc4c3)CC2C)cc1CC(=O)O (stereo not drawn) [Example 73, [5-(4-Benzofuran-5-yl-2-methyl-piperazine-1-sulfonyl)-2-methyl-phenyl]-acetic acid]
> 100 |  | > 100 | 5 to 100 |  | Cc1ccc(S(=O)(=O)N2CCN(c3ccc(C(F)(F)F)nn3)CC2)cc1CC(=O)O [Example 74]
5 to 100 |  | > 100 | < 5 |  | COc1ccc(S(=O)(=O)N2CCN(c3ccc(C(F)(F)F)cc3)CC2)cc1CC(=O)O [Example 75, {2-Methoxy-5-[4-(4-trifluoromethyl-phenyl)-piperazine-1-sulfonyl]-phenyl}-acetic acid]
5 to 100 |  | > 100 | < 5 |  | COc1ccc(S(=O)(=O)N2CCN(c3ccc(C(F)(F)F)cn3)CC2)cc1CC(=O)O [Example 76, {2-Methoxy-5-[4-(5-trifluoromethyl-pyridin-2-yl)-piperazine-1-sulfonyl]-phenyl}-acetic acid]
5 to 100 |  | > 100 | < 5 |  | COc1ccc(S(=O)(=O)N2CCN(c3ccc(C(F)(F)F)cn3)CC2C)cc1CC(=O)O (stereo not drawn) [Example 77, {2-Methoxy-5-[2-methyl-4-(5-trifluoromethyl-pyridin-2-yl)-piperazine-1-sulfonyl]-phenyl}-acetic acid]

The next lines start with the compound.

Structure (SMILES) | EC50 [1] [µM] | PPAR delta EC50 [2] | EC50 [3] [µM] | EC50 [2] [µM] | PPAR gamma EC50 [1]
Cc1ccc(S(=O)(=O)N2CCC(c3ccc(C(F)(F)F)cc3)CC2)cc1CC(=O)O [Example 48, {2-Methyl-5-[4-(4-trifluoromethyl-phenyl)-piperidine-1-sulfonyl]-phenyl}-acetic acid] | 5 to 100 | B/C | > 100 |  | 
Cc1ccc(S(=O)(=O)N2CCC(c3ccc(Cl)c(Cl)c3)CC2)cc1CC(=O)O [Example 49, {5-[4-(3,4-Dichloro-phenyl)-piperidine-1-sulfonyl]-2-methyl-phenyl)-acetic acid] | 5 to 100 |  | > 100 | 5 to 100 | 
Cc1ccc(S(=O)(=O)N2CCN(c3nc(Cl)cs3)CC2)cc1CC(=O)O [Example 50, {5-[4-(4-Chloro-thiazol-2-yl)-piperazine-1-sulfonyl]-2-methyl-phenyl}-acetic acid] | 5 to 100 |  | > 100 | 5 to 100 | 
Cc1ccc(S(=O)(=O)N2CCN(c3nc(Cl)c(Cl)s3)CC2)cc1CC(=O)O [Example 51, {5-[4-(4,5-Dichloro-thiazol-2-yl)-piperazine-1-sulfonyl]-2-methyl-phenyl}-acetic acid] | < 5 |  | 5 to 100 | < 5 | 
Cc1ccc(S(=O)(=O)N2CCN(c3nc(C(F)(F)F)cs3)CC2)cc1CC(=O)O [Example 53, {2-Methyl-5-[4-(4-trifluoromethyl-thiazol-2-yl)-piperazine-1-sulfonyl]-phenyl}-acetic acid] | 5 to 100 |  | > 100 | 5 to 100 | 
Cc1ccc(S(=O)(=O)N2CCN(c3ncc(Br)s3)CC2)cc1CC(=O)O [Example 55, {5-[4-(5-Bromo-thiazol-2-yl)-piperazine-1-sulfonyl]-2-methyl-phenyl}-acetic acid] | 5 to 100 |  | 5 to 100 | < 5 | 
Cc1ccc(S(=O)(=O)N2CCN(c3ccc([N+](=O)[O-])cn3)CC2)cc1CC(=O)O [Example 56, {2-Methyl-5-[4-(5-nitro-pyridin-2-yl)-piperazine-1-sulfonyl]-phenyl}-acetic acid] | 5 to 100 |  | > 100 | < 5 | 
Cc1ccc(S(=O)(=O)N2CCN(c3ncc(Cl)cn3)CC2)cc1CC(=O)O [Example 57, {5-[4-(5-Chloro-pyrimidin-2-yl)-piperazine-1-sulfonyl]-2-methyl-phenyl}-acetic acid] | < 5 |  | 5 to 100 | < 5 | 
Cc1ccc(S(=O)(=O)N2CCN(c3ncc(Br)cn3)CC2)cc1CC(=O)O [Example 58, {5-[4-(5-Bromo-pyrimidin-2-yl)-piperazine-1-sulfonyl]-2-methyl-phenyl}-acetic acid] | < 5 |  | 5 to 100 | < 5 | 
Cc1ccc(S(=O)(=O)N2CCN(c3ccc(Br)cn3)CC2)cc1CC(=O)O [Example 61, {5-[4-(5-Bromo-pyridin-2-yl)-piperazine-1-sulfonyl]-2-methyl-phenyl}-acetic acid] | < 5 |  | > 100 | < 5 | 
Cc1ccc(S(=O)(=O)N2CCN(c3ccc(Cl)cn3)CC2)cc1CC(=O)O [Example 62, {5-[4-(5-Chloro-pyridin-2-yl)-piperazine-1-sulfonyl]-2-methyl-phenyl}-acetic acid] |  |  | > 100 | < 5 | B/C
Cc1ccc(S(=O)(=O)N2CCN(c3ncc(F)cn3)CC2)cc1CC(=O)O [Example 63, {5-[4-(5-Fluoro-pyrimidin-2-yl)-piperazine-1-sulfonyl]-2-methyl-phenyl}-acetic acid] | 5 to 100 |  | > 100 | < 5 | 
Cc1ccc(S(=O)(=O)N2CCN(c3nc(Cl)ncc3F)CC2)cc1CC(=O)O [Example 64, {5-[4-(2-Chloro-5-fluoro-pyrimidin-4-yl)-piperazine-1-sulfonyl]-2-methyl-phenyl}-acetic acid] | 5 to 100 |  | > 100 | > 100 | 
Cc1ccc(S(=O)(=O)N2[C@H](C)CN(c3ccc(C(F)(F)F)c(F)c3)C[C@@H]2C)cc1CC(=O)O [Example 68, {5-[4-(3-Fluoro-4-trifluoromethyl-phenyl)-2,6-dimethyl-piperazine-1-sulfonyl]-2-methyl-phenyl}-acetic acid] | 5 to 100 |  | < 5 | < 5 | 
